ChEMBL document CHEMBL1201862, “PubChem BioAssay data set” (2004)
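Values below derive from 48-hour exposures of cells grown in 96-well plates, with endpoints linearly interpolated between the two concentrations bracketing the appropriate inhibition level. GI50: concentration for 50% inhibition of growth.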 Calls of active or inactive are those of the source. Rule as the data show it: active = GI50 up to about 1.1 µM and inactive = higher.

Columns and labels:
Test in all cases: DTP human tumour cell line panel, 48 h
NCI-H226 = test system: NCI-H226
HOP-92 = test system: HOP-92
SK-OV-3 = test system: SK-OV-3
RPMI-8226 = test system: RPMI-8226
SK-MEL-28 = test system: SK-MEL-28
HOP-18 = test system: HOP-18
UO-31 = test system: UO-31
SNB-75 = test system: SNB-75
OVCAR-5 = test system: OVCAR-5
NCI-H522 = test system: NCI-H522
OVCAR-8 = test system: OVCAR-8
SR = test system: SR
HCC 2998 = test system: HCC 2998
HCT-15 = test system: HCT-15
SNB-19 = test system: SNB-19
COLO 205 = test system: COLO 205
OVCAR-4 = test system: OVCAR-4
DMS-114 = test system: DMS-114
SW-620 = test system: SW-620
HOP-62 = test system: HOP-62
M14 = test system: M14
LOX IMVI = test system: LOX IMVI
KM12 = test system: KM12
UACC-257 = test system: UACC-257
HCT-116 = test system: HCT-116
786-0 = test system: 786-0
A498 = test system: A498
DLD-1 = test system: DLD-1
TK-10 = test system: TK-10
ACHN = test system: ACHN
SF-539 = test system: SF-539
CAKI-1 = test system: CAKI-1
SN12C = test system: SN12C
UACC-62 = test system: UACC-62
SK-MEL-5 = test system: SK-MEL-5
DMS-273 = test system: DMS-273
KM-20L2 = test system: KM-20L2
LXFL 529 = test system: LXFL 529
SNB-78 = test system: SNB-78
SF-268 = test system: SF-268
NCI-H23 = test system: NCI-H23
HT-29 = test system: HT-29
OVCAR-3 = test system: OVCAR-3
SF-295 = test system: SF-295
SK-MEL-2 = test system: SK-MEL-2
A549 = test system: A549
IGROV-1 = test system: IGROV-1
K562 = test system: K562
M19-MEL = test system: M19-MEL
Malme-3M = test system: Malme-3M
U-251 = test system: U-251
MOLT-4 = test system: MOLT-4
NCI-H460 = test system: NCI-H460
CCRF-CEM = test system: CCRF-CEM
BT-549 = test system: BT-549
HL-60 = test system: HL-60
RXF 393 = test system: RXF 393
PC-3 = test system: PC-3
EKVX = test system: EKVX
MDA-MB-231 = test system: MDA-MB-231
MDA-N = test system: MDA-N
MDA-MB-435 = test system: MDA-MB-435

CCCCn1c2ccccc2c2ccc3c(c21)C(=O)C=CC3=O
GI50 (NCI-H226): > 100000 nM (inactive) | GI50 (HOP-92): > 100000 nM (inactive) | GI50 (SK-OV-3): > 100000 nM (inactive) | GI50 (RPMI-8226): > 100000 nM (inactive) | GI50 (SK-MEL-28): > 100000 nM (inactive) | GI50 (HOP-18): > 100000 nM (inactive) | GI50 (UO-31): 62200 nM (inactive) | GI50 (SNB-75): 52.1 nM (active) | GI50 (OVCAR-5): > 100000 nM (inactive) | GI50 (NCI-H522): > 100000 nM (inactive) | GI50 (OVCAR-8): > 100000 nM (inactive) | GI50 (SR): > 100000 nM (inactive) | GI50 (HCC 2998): > 100000 nM (inactive) | GI50 (HCT-15): > 100000 nM | GI50 (SNB-19): > 100000 nM (inactive) | GI50 (COLO 205): > 100000 nM (inactive) | GI50 (OVCAR-4): > 100000 nM (inactive) | GI50 (DMS-114): > 100000 nM (inactive) | GI50 (SW-620): > 100000 nM (inactive) | GI50 (HOP-62): > 100000 nM (inactive) | GI50 (M14): > 100000 nM (inactive) | GI50 (LOX IMVI): > 100000 nM (inactive) | GI50 (KM12): > 100000 nM (inactive) | GI50 (UACC-257): > 100000 nM (inactive) | GI50 (HCT-116): > 100000 nM (inactive) | GI50 (786-0): > 100000 nM (inactive) | GI50 (A498): > 100000 nM (inactive) | GI50 (DLD-1): > 100000 nM (inactive) | GI50 (TK-10): > 100000 nM (inactive) | GI50 (ACHN): > 100000 nM (inactive) | GI50 (SF-539): > 100000 nM (inactive) | GI50 (CAKI-1): > 100000 nM (inactive) | GI50 (SN12C): > 100000 nM (inactive) | GI50 (UACC-62): > 100000 nM (inactive) | GI50 (SK-MEL-5): > 100000 nM (inactive) | GI50 (DMS-273): > 100000 nM (inactive) | GI50 (KM-20L2): > 100000 nM (inactive) | GI50 (LXFL 529): > 100000 nM (inactive) | GI50 (SNB-78): > 100000 nM (inactive) | GI50 (SF-268): > 100000 nM (inactive) | GI50 (NCI-H23): > 100000 nM (inactive) | GI50 (HT-29): 991 nM (active) | GI50 (OVCAR-3): > 100000 nM (inactive) | GI50 (SF-295): > 100000 nM (inactive) | GI50 (SK-MEL-2): > 100000 nM (inactive) | GI50 (A549): > 100000 nM (inactive) | GI50 (IGROV-1): > 100000 nM (inactive) | GI50 (K562): 84300 nM (inactive) | GI50 (M19-MEL): 185 nM (active) | GI50 (Malme-3M): > 100000 nM (inactive) | GI50 (U-251): > 100000 nM (inactive) | GI50 (MOLT-4): 54800 nM (inactive) | GI50 (NCI-H460): > 100000 nM (inactive)

C=C(CC(NC(=O)c1ccc(C(CC)Cc2cnc3nc(N)nc(N)c3n2)cc1)C(=O)O)C(=O)O (centres undefined)
GI50 (NCI-H226): 87.5 nM (active) | GI50 (CCRF-CEM): 10 nM (active) | GI50 (SK-OV-3): 214 nM (active) | GI50 (RPMI-8226): 29 nM (active) | GI50 (SK-MEL-28): 209 nM (active) | GI50 (HOP-18): 42.9 nM (active) | GI50 (UO-31): 114 nM (active) | GI50 (SNB-75): 154 nM (active) | GI50 (OVCAR-5): 653 nM (active) | GI50 (BT-549): 68.7 nM (active) | GI50 (OVCAR-8): 21.7 nM (active) | GI50 (HL-60): 3.76 nM (active) | GI50 (SR): 3.16 nM (active) | GI50 (HCC 2998): 239 nM (active) | GI50 (HCT-15): 5.31 nM | GI50 (COLO 205): 79.6 nM (active) | GI50 (OVCAR-4): 246 nM (active) | GI50 (RXF 393): 237 nM (active) | GI50 (SW-620): 67.3 nM (active) | GI50 (HOP-62): 30 nM (active) | GI50 (M14): 20 nM (active) | GI50 (LOX IMVI): 4.36 nM (active) | GI50 (UACC-257): 839 nM (active) | GI50 (HCT-116): 2.86 nM (active) | GI50 (PC-3): 52.7 nM (active) | GI50 (786-0): 1.74 nM (active) | GI50 (A498): 632 nM (active) | GI50 (DLD-1): 0.574 nM (active) | GI50 (TK-10): 71.9 nM (active) | GI50 (EKVX): 52700 nM (inactive) | GI50 (ACHN): 18.4 nM (active) | GI50 (MDA-MB-231): 73.6 nM (active) | GI50 (SF-539): 3.19 nM (active) | GI50 (CAKI-1): 169 nM (active) | GI50 (SN12C): 24.4 nM (active) | GI50 (UACC-62): 163 nM (active) | GI50 (SK-MEL-5): 85.7 nM (active) | GI50 (DMS-273): 0.644 nM (active) | GI50 (KM-20L2): 10 nM (active) | GI50 (LXFL 529): 2.39 nM (active) | GI50 (SNB-78): 27700 nM (inactive) | GI50 (SF-268): 73.1 nM (active) | GI50 (NCI-H23): 244 nM (active) | GI50 (HT-29): 35.6 nM (active) | GI50 (OVCAR-3): 190 nM (active) | GI50 (SF-295): 1.13 nM (active) | GI50 (SK-MEL-2): 933 nM (active) | GI50 (A549): 5.67 nM (active) | GI50 (MDA-N): 46.2 nM (active) | GI50 (IGROV-1): 27.4 nM (active) | GI50 (K562): 1.85 nM (active) | GI50 (Malme-3M): 350 nM (active) | GI50 (MDA-MB-435): 36.9 nM (active) | GI50 (U-251): 152 nM (active) | GI50 (MOLT-4): 13.6 nM (active) | GI50 (NCI-H460): 5.89 nM (active)
